Data reported in ChEMBL document CHEMBL1275321, “Synthesis and antitumor activity of novel 6-aryl and 6-alkylpyrazolo[3,4-d]pyrimidin-4-one derivatives” (Eur J Med Chem, 2010).
In brackets after ≈: the same amount, converted by molar mass.

system: HCT-116; assay: Cytotoxicity against human HCT116 cells after 48 hrs by sulforhodamine B assay; assay type: functional, cell-based; conditions: HCT-116, 48 h

Compound | IC50 [mg/L]
CSc1nn(-c2ccccc2)c2nc(CNc3ccc(S(N)(=O)=O)cc3)[nH]c(=O)c12 | 3.09 (≈ 6.98 µM)
COc1ccc(NCc2nc3c(c(SC)nn3-c3ccccc3)c(=O)[nH]2)cc1 | 2.7 (≈ 6.86 µM)
CSc1nn(-c2ccccc2)c2c1C(=O)NC(c1ccccc1)N2 (configuration not stated) | 2.4 (≈ 7.13 µM)
CSc1nn(-c2ccccc2)c2nc(CCNC3CCCCC3)[nH]c(=O)c12 | 0.47 (≈ 1.23 µM)
CSc1nn(-c2ccccc2)c2nc(CCNc3ccccc3)[nH]c(=O)c12 | 1.34 (≈ 3.55 µM)
CSc1nn(-c2ccccc2)c2nc(-c3cccc([N+](=O)[O-])c3)[nH]c(=O)c12 | 0.67 (≈ 1.77 µM)
CSc1nn(-c2ccccc2)c2nc(CCNc3ccc(S(N)(=O)=O)cc3)[nH]c(=O)c12 | 2.82 (≈ 6.18 µM)
